Residue numbers refer to the chain shown, from its start.

In one test the target is T1, hA1AR G279S^7.44 (Homo sapiens, UniProt P30542, G279S).
T1 sequence (P30542 1-326 G279S): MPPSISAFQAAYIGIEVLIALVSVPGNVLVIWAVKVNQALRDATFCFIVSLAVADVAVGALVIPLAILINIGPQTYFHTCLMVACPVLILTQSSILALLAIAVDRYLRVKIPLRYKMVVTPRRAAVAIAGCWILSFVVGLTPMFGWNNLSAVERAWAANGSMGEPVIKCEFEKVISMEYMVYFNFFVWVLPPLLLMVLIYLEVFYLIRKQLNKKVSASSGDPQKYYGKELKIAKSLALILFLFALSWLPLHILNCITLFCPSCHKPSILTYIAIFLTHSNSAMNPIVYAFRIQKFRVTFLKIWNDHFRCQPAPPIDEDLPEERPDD
Nature of the test: [3H]DPCPX radioligand displacement assay, CHO membranes. The class given is binding. Also on record: HA; expressed in transfected cells; host or cells: CHO cells, transient PEI transfection; membranes prepared. The settings on record: fraction of high-affinity state; two-site model. The procedure: (§1) Transient transfection of CHO cells with wild type or mutated hA1AR plasmid constructs was performed using a polyethylenimine (PEI) method. Cells were seeded in 10-cm culture dishes to achieve 50–60% confluency 24 h prior to transfection. On the day of transfection, cells were transfected with a PEI: DNA ratio of 3:1 and a plasmid DNA amount of 10 μg/dish. Moreover, 24 h post-transfection, the medium was refreshed, and 48 h after transfection, cells were collected and membranes were prepared as previously described. Membranes were aliquoted in 250 or 100 μL and stored at −80 °C. Membrane protein concentrations were determined using the BCA method.
The displacement assays were performed as described previously. […] After the addition of 25 µL per well of the Microscint scintillation cocktail (PerkinElmer, Groningen, The Netherlands), the filter-bound radioactivity was measured by scintillation spectrometry in a Microbeta2® 2450 microplate counter (PerkinElmer).
(§2) All experimental data were analyzed by GraphPad Prism 7.0 or 8.0 (GraphPad Software Inc., San Diego, CA, USA). Data from yeast liquid growth and [^35S]GTPγS binding assays were analyzed by non-linear regression using “log (agonist) vs. response (three parameters)” or “log (inhibitor) vs. response (three parameters)” to obtain potency (EC50), inhibitory potency (IC50), and efficacy (Emax or Imax) values. […]

In a further test the test system is A1AR P86F^3.31. Also on record: method as in PMID 9920910. The settings on record: result in words; cited from earlier work.
The target of test [1] is T2, hA1AR S246T^6.47 (Homo sapiens, UniProt P30542, S246T).
T2 sequence (P30542 1-326 S246T): T1 sequence (P30542 1-326 G279S) with S246T, S279G
The note with it: ratio over basal activity of wild type hA1AR; yeast; 7 mM 3-AT. The procedure:
The plasmids, pDT-PGK_hA1AR, containing either wild type or mutated hA1AR were transformed into a MMY24 S. cerevisiae strain following the lithium acetate procedure.
In order to characterize the mutant hA1ARs, liquid growth assays in 96-well plates were performed to obtain concentration–growth curves as previously described. […] The overnight cultures were then diluted to 40,000 cells/mL (OD600 ≈ 0.02) in a selective medium without uracil, leucine, and histidine (YNB-ULH). For the determination of constitutive activity, 50 μL of yeast cells and 150 μL of YNB-ULH medium containing different concentrations of 3-AT and 0.8 IU/mL ADA were then added to each well. […] After incubation at 30 °C for 35 h in a Genios plate reader (TECAN, Zürich, Switzerland) with shaking for 1 min at 300 rpm every 10 min, the optical density was measured at a wavelength of 595 nm, which represented the level of yeast cell growth.
as §2

Another test concerns the target T3, hA1AR H78L^3.23 (Homo sapiens, UniProt P30542, H78L).
T3 sequence (P30542 1-326 H78L): T1 sequence (P30542 1-326 G279S) with H78L, S279G
Nature of the test: [3H]DPCPX radioligand displacement assay, CHO membranes. The format is binding. Also on record: expressed in transfected cells; host or cells: CHO cells, transient; membranes. The note with it: fraction of high-affinity state; two-site model. The procedure: as §1
(§3) The displacement assays were performed as described previously. […] Note, the number of cell membranes (10–25 µg) was adjusted to obtain (approximately) a 1500 DPM assay window for each mutant. […] Incubations were terminated after 1 h at 25 °C by rapid vacuum filtration through GF/B filter plates (PerkinElmer, Groningen, Netherlands) using a Perkin Elmer Filtermate-harvester. Afterward, filter plates were washed ten times with ice-cold buffer (50 mM Tris-HCl, pH 7.4) and dried at 55 °C for 30 min. After the addition of 25 µL per well of the Microscint scintillation cocktail (PerkinElmer, Groningen, The Netherlands), the filter-bound radioactivity was measured by scintillation spectrometry in a Microbeta2® 2450 microplate counter (PerkinElmer).
(§4) All experimental data were analyzed by GraphPad Prism 7.0 or 8.0 (GraphPad Software Inc., San Diego, CA, USA). Data from yeast liquid growth and [^35S]GTPγS binding assays were analyzed by non-linear regression using “log (agonist) vs. response (three parameters)” or “log (inhibitor) vs. response (three parameters)” to obtain potency (EC50), inhibitory potency (IC50), and efficacy (Emax or Imax) values. The radioligand displacement curves were obtained from a statistically preferred one-site or two-site binding model. pKi values were calculated from pIC50 values using the Cheng–Prusoff equation, where KD values were obtained from the homologous competition assays from this study and calculated by non-linear regression using “one site–homologous” [62].

Test [2] addresses T2, hA1AR S246T^6.47. Described as above. The class given is binding. Also on record: expressed in transfected cells; host or cells: CHO cells, transient; membranes. The note with it: fraction of high-affinity state; two-site model. Here is the method: as §1, §3, §4

With `OC[C@H]1O[C@@H](n2cnc3c(NC4CCCC4)ncnc32)[C@H](O)[C@@H]1O` [CPA, N^6-cyclopentyladenosine], the figures for the “Fraction (High)” value at hA1AR G279S^7.44, on hA1AR H78L^3.23 and at hA1AR S246T^6.47 [2] were 0.17 ± 0.04, 0.33 ± 0.04 and 0.26 ± 0.03, respectively. For the same compound, the CPA binding result with A1AR P86F^3.31 is “abolished”. Besides, at hA1AR S246T^6.47 [1], the Emax turned out to be 4.81 ± 0.26.

Source of the values: publication PMC9229843, “Cancer-Related Somatic Mutations in Transmembrane Helices Alter Adenosine A1 Receptor Pharmacology” (Molecules, 2022).
